Like-named read-outs stand apart in the source and are kept apart here. Some results are limits rather than exact numbers.

Experiment [1] concerns K562 human chronic myeloid leukaemia cells. The experiment is described as follows: In vitro cytotoxicity, K562 cells, MTT assay. It is filed as cell-based. The note with it: 1 h drug exposure, MTT after 4 days. Here is the method: K562 human chronic myeloid leukaemia cells were maintained in RPM1 1640 medium supplemented with 10% fetal calf serum and 2 mM glutamine at 37° C. in a humidified atmosphere containing 5% CO2 and were incubated with a specified dose of drug for 1 h at 37° C. in the dark. The incubation was terminated by centrifugation (5 min, 300 g) and the cells were washed once with drug-free medium. Following the appropriate drug treatment, the cells were transferred to 96-well microtiter plates (10^4 cells per well, 8 wells per sample). Plates were then kept in the dark at 37° C. in a humidified atmosphere containing 5% CO2. The assay is based on the ability of viable cells to reduce a yellow soluble tetrazolium salt, 3-(4,5-dimethylthiazol-2-yl)-2,5-diphenyl-2H-tetrazolium bromide (MTT, Aldrich-Sigma), to an insoluble purple formazan precipitate. Following incubation of the plates for 4 days (to allow control cells to increase in number by approximately 10 fold), 20 μL of MTT solution (5 mg/mL in phosphate-buffered saline) was added to each well and the plates further incubated for 5 h. The plates were then centrifuged for 5 min at 300 g and the bulk of the medium pipetted from the cell pellet leaving 10-20 μL per well. DMSO (200 μL) was added to each well and the samples agitated to ensure complete mixing. The optical density was then read at a wavelength of 550 nm on a Titertek Multiscan ELISA plate reader, and a dose-response curve was constructed. For each curve, an IC50 value was read as the dose required to reduce the final optical density to 50% of the control value.
On the technique in general: Tetrazolium assays rely on reduction of a dye to a coloured formazan, in cell work by metabolically active cells.

The subject of experiment [2] is approximately 60 human tumour cell lines. The experiment is described as follows: NCI60 cell screen, in vitro cytotoxicity, SRB assay. It is filed as cell-based. The note with it: NCI 60 human tumour cell lines, 48 h continuous exposure. Here is the method:
The National Cancer Institute (NCI), Bethesda, Md., USA has available an in vitro cytotoxicity screen which consists of approximately 60 human tumour cell lines against which compounds are tested at a minimum of five concentrations each differing 10-fold. A 48 h continuous exposure protocol is used, where cell viability or growth is estimated with an SRB protein assay.
The test compounds were evaluated against approximately 60 human tumour cell lines. The NCI screening procedures were described in detail by Monks and co-workers (Monks, A et al., Journal of the National Cancer Institute, 1991, 83, 757). Briefly, cell suspensions were diluted according to the particular cell type and the expected target cell density (5000-40,000 cells per well based on cell growth characteristics), and added by pipette (100 μL) into 96-well microtitre plates. The cells were allowed a preincubation period of 24 h at 37° C. for stabilisation. Dilutions at twice the intended test concentration were added at time zero in 100 μL aliquots to the wells. The test compounds were evaluated at five 10-fold dilutions (10^−4, 10^−5, 10^−6, 10^−7 and 10^−[…]). The test compounds were incubated for 48 h in 5% CO2 atmosphere and 100% humidity. The cells were then assayed using the sulphorhodamine B assay. A plate reader was used to read the optical densities and a microcomputer processed the readings into GI50 values (in Moles), which is the dosage required to limit cell growth to 50%.
In general terms: The SRB assay estimates cell density from bound dye.

Experiment [3] has as its system linear pBR322 DNA. As to the kind of experiment: DNA cross-linking, electrophoretic assay (Hartley et al.). Format: biochemical. Particulars: 2 h at 37° C., pH 7.2. Here is the method:
The extent of DNA cross-linking induced by each PBD dimer was determined using the electrophoretic assay method of Hartley, et al. (Hartley, J. A., Berardini, M. D., and Souhami, R. L. (1991) Anal. Biochem. 193, 131-134) based on the principle that, following complete denaturation of linear pBR322 DNA (˜4,300 bp) to the single-stranded (SS) form, an interstrand cross-link results in renaturation to double-stranded (DS) in a neutral gel.
Closed-circular DNA was linearized with HindIII, then dephosphorylated and finally 5′-singly end-labelled using [γ^32P]-ATP and polynucleotide kinase. Reactions containing 30-40 ng of DNA and the test compound were carried out in aqueous TEOA (25 mM triethanolamine, 1 mM EDTA, pH 7.2) buffer at 37° C. in a final volume of 50 μl for 2 h. Reactions were terminated by addition of an equal volume of stop solution (0.6 M NaOAc, 20 mM EDTA, 100 μg/ml tRNA) followed by precipitation with ethanol. Following centrifugation, the supernatant was discarded and the pellet dried by lyophilization. […] Control non-denatured samples were re-suspended in 10 μl of non-denaturing buffer solution (0.6% sucrose, 0.04% bromophenol blue in aqueous TAE buffer [40 mM Tris, 20 mM acetic acid, 2 mM EDTA, pH 8.1]) and loaded directly onto the gel for comparison.
Electrophoresis was carried out for 14-16 h at 40 V using a 0.8% submerged agarose gel (20×25×0.5 cm) in TAE buffer. Gels were dried under vacuum for 2 h at 80° C. onto one layer each of Whatman 3MM and DE8I filter papers using a BioRad 583 gel dryer. Autoradiographs were obtained after exposure of Hyperfilm-MP film (Amersham plc, U.K.) to the dried gel for either 4 h with a screen (or over night, without a screen, to obtain a sharper image). Film bands were quantitated using a BioRad GS-670 imaging laser densitometer. Percentage cross-linking was calculated by measuring the total DNA in each lane (summed density for the double-stranded [DS] and single-stranded [SS] bands) relative to the amount of cross-linked DNA (density of DS band alone). A dose-response curve was derived by plotting drug concentration against the determined percentage level of cross-linked DNA which was then analysed to determine the concentration of test compound that results in 50% cross-linked plasmid DNA (XL50).

Where [4] appears, read: Alkali, read-out: XL50 (concentration that results in 50% cross-linked plasmid DNA), Alkali.
[5] abbreviates: Heat, read-out: XL50 (concentration that results in 50% cross-linked plasmid DNA), Heat.

For orientation: IC50 means the midpoint of a concentration-inhibition curve. Lower therefore signals inhibition by little substance. A word on the GI50: it is the concentration that inhibits growth by half. Read a low GI50 as more potent growth inhibition. Consider `COc1cc2c(cc1NC(=O)c1cc(C(=O)Nc3cc4c(cc3OC)C(=O)N3CCC[C@H]3C=N4)n(C)c1)N=C[C@@H]1CCCN1C2=O` [(2) SJG-604, 1-Methyl-1H-pyrrole-2,4-dicarboxylic acid bis-[(11aS)(7-methoxy-5-oxo-1,2,3,11a-tetrahydro-5H-pyrrolo[2,1-c][1,4]benzodiazepin-8-yl)-amide]], for which the IC50 in experiment [1] came out at 23000 nM. In experiment [2], this compound had a GI50 of 31600 nM. Besides, the EC50 in experiment [3] (setting [4]) is 3500 nM.

Compound `COc1cc2c(cc1NC(=O)c1ccc(C(=O)Nc3cc4c(cc3OC)C(=O)N3CCC[C@H]3C=N4)n1C)N=C[C@@H]1CCCN1C2=O` [(1) SJG-605, 1-Methyl-1H-pyrrole-2,5-dicarboxylic acid bis-[(11aS)(7-methoxy-5-oxo-1,2,3,11a-tetrahydro-5H-pyrrolo[2,1-c][1,4]benzodiazepin-8-yl)-amide]] had an IC50 in experiment [1] of 1200 nM. The same compound displayed a GI50 in experiment [2] of 1000 nM. In experiment [3] (setting [4]), the EC50 worked out at 1300 nM.

For the compound `COc1cc2c(cc1OCCCNC(=O)c1ccc(C(=O)NCCCOc3cc4c(cc3OC)C(=O)N3CCC[C@H]3C=N4)n1C)N=C[C@@H]1CCCN1C2=O` [(13) AT-217], the GI50 in experiment [2] stood at 19000 nM. Further, the EC50 came out at 350 nM in experiment [3] (setting [4]) and 3800 nM in experiment [3] (setting [5]).

Regarding `COc1cc2c(cc1OCCCNC(=O)c1cc(NC(=O)c3cc(NC(=O)c4cc(NC(=O)CCCOc5cc6c(cc5OC)C(=O)N5CCC[C@H]5C=N6)cn4C)cn3C)cn1C)N=C[C@@H]1CCCN1C2=O` [(18) AT-235], in experiment [1], half-maximal inhibition (IC50) required 1510 nM. Also, halving of growth in experiment [2] (GI50) required 10 nM. The EC50 in experiment [3] (setting [4]) was < 100 nM; in experiment [3] (setting [5]) it was 230 nM.

Consider `COc1cc2c(cc1OCCCC(=O)Nc1cc(C(=O)NCCCNC(=O)c3cc(NC(=O)CCCOc4cc5c(cc4OC)C(=O)N4CCC[C@H]4C=N5)cn3C)n(C)c1)N=C[C@@H]1CCCN1C2=O` [(15) AT-281], for which the IC50 in experiment [1] turned out to be 340 nM. In experiment [2], this compound showed a GI50 of 10 nM.
